Measurements: US4761410A, “Cephem Compounds” (Fujisawa Pharmaceutical Co., Ltd., priority 1985, dated 1988)
Converted amounts (≈) assume the structure as drawn.

What was measured:
Escherichia coli 29 = assay: In vitro antibacterial activity (MIC) by two-fold agar-plate dilution method, Escherichia coli 29; format: cell-based; settings: heart infusion agar, 37° C., 20 hours, read-out: MIC (minimal inhibitory concentration)
Method: (§1) In vitro antibacterial activity was determined by the two-fold agar-plate dilution method as described below.
(§2) One loopful of an overnight culture of each test strain in Trypticase-soy broth (10^8 viable cells per ml) was streaked on heart infusion agar HI-agar) containing graded concentrations of representative test compound, and the minimal inhibitory concentration (MIC) was expressed in terms of μg/ml after incubation at 37° C. for 20 hours.

[1] = test system: Proteus vulgaris IAM 1025; assay: In vitro antibacterial activity (MIC) by two-fold agar-plate dilution method, Proteus vulgaris IAM 1025; format: cell-based; settings: IAM1025, heart infusion agar, 37° C., 20 hours, read-out: MIC (minimal inhibitory concentration)
Method: as §1, §2

MIC (Escherichia coli 29) [µg/mL] | MIC [1] [µg/mL] | Compound
0.2 (≈ 0.355 µM) | 0.05 (≈ 0.0887 µM) | Cc1nsc(SCC2=C(C(=O)O)N3C(=O)C(NC(=O)/C(=N\OC(F)F)c4csc(N)n4)C3SC2)n1 (stereo not drawn) [Test Compound (2), 7-[2-(2-Aminothiazol-4-yl)-2-difluoromethoxyiminoacetamido]-3-(3-methyl-1,2,4-thiadiazol-5-yl)thiomethyl-3-cephem-4-carboxylic acid]
≤ 0.025 | ≤ 0.025 | Cc1ccc[n+](CC2=C(C(=O)[O-])N3C(=O)C(NC(=O)/C(=N\OC(F)F)c4csc(N)n4)C3SC2)c1 (stereo not drawn) [Test Compound (1), 7-[2-(2-Aminothiazol-4-yl)-2-difluoromethoxyiminoacetamido]-3-(3-methyl-1-pyridiniomethyl)-3-cephem-4-carboxylate]
0.1 (≈ 0.182 µM) | ≤ 0.025 | Nc1nc(/C(=N/OC(F)F)C(=O)NC2C(=O)N3C(C(=O)O)=C(CSc4ncns4)CSC23)cs1 (stereo not drawn) [Test Compound (3), 7-[2-(2-Aminothiazol-4-yl)-2-difluoromethoxyiminoacetamido]-3-(1,2,4-thiadiazol-5-yl)thiomethyl-3-cephem-4-carboxylic acid]
